Source: patent US8735414B2 (priority 2009, dated 2014)

Legend:
[1] = test system: bicistronic HCV replicon (replicon RNA, GenBank Accession No. AJ242654); experiment: HCV Replicon Assay; assay type: cell-based; settings: Hepatitis C virus, 72 h, read-out: Replicon IC50

Row | Structure (SMILES) | melting point | IC50 [1]
1 | Cc1cc(-n2c(-c3ccc(S(=O)(=O)N[C@@H](C)C(F)(F)F)cn3)c(C#N)c3cc(F)c(C)cc32)cs1 [compound 1058, 6-[3-cyano-5-fluoro-6-methyl-1-(5-methylthiophen-3-yl)-1H-indol-2-yl]-N-[(2S)-1,1,1-trifluoropropan-2-yl]pyridine-3-sulfonamide] | 210.5 to 215.2 °C | < 500 nM
2 | Cc1cc2c(cc1F)c(C#N)c(-c1ccc(S(=O)(=O)N[C@@H](C)C(F)(F)F)cn1)n2-c1ccc(C#N)cn1 [compound 743, 6-[3-cyano-1-(5-cyanopyridin-2-yl)-5-fluoro-6-methyl-1H-indol-2-yl]-N-[(2S)-1,1,1-trifluoropropan-2-yl]pyridine-3-sulfonamide] | 276 to 277 °C | < 500 nM
3 | Cc1ccc2c(c1)c(C#N)c(-c1ncc(S(=O)(=O)N[C@@H](C)C3CC3)cn1)n2C1CCCC1 [compound 562, 2-(3-cyano-1-cyclopentyl-5-methyl-1H-indol-2-yl)-N-[(1S)-1-cyclopropylethyl]pyrimidine-5-sulfonamide] | 168 to 171 °C | < 500 nM
4 | Cc1c(F)cc2c(C#N)c(-c3ccc(S(=O)(=O)NC(C)(C)C(F)(F)F)cn3)n(C3CCCC3)c2c1F [compound 580, 6-(3-cyano-1-cyclopentyl-5,7-difluoro-6-methyl-1H-indol-2-yl)-N-(1,1,1-trifluoro-2-methylpropan-2-yl)pyridine-3-sulfonamide] | 226 to 232 °C | < 500 nM
5 | CC[C@H](NS(=O)(=O)c1ccc(-c2c(C#N)c3cc(F)c(OC(F)F)cc3n2C2CCC2)nc1)C(F)(F)F [compound 738, 6-[3-cyano-1-cyclobutyl-6-(difluoromethoxy)-5-fluoro-1H-indol-2-yl]-N-[(2S)-1,1,1-trifluorobutan-2-yl]pyridine-3-sulfonamide] | 166 to 173 °C | < 500 nM
6 | Cc1cc2c(cc1F)c(C(=O)O)c(-c1ccc(S(=O)(=O)NC(C)(C)C)cn1)n2C1CCCC1 [compound 766, 2-[5-(tert-butylsulfamoyl)pyridin-2-yl]-1-cyclopentyl-5-fluoro-6-methyl-1H-indole-3-carboxylic acid] | 238 to 240 °C | < 500 nM
7 | C[C@H](NS(=O)(=O)c1ccc(-c2c(C#N)c3cc(Cl)ccc3n2C2CCC2)nc1)C1CC1 [compound 119, 6-(5-chloro-3-cyano-1-cyclobutyl-1H-indol-2-yl)-N-[(1S)-1-cyclopropylethyl]pyridine-3-sulfonamide] | 154 to 155 °C | < 500 nM
8 | N#Cc1c(-c2ccc(S(=O)(=O)NC(CF)CF)cn2)n(C2CCCCC2)c2cc(OC(F)F)ccc12 [compound 100, 6-[3-cyano-1-cyclohexyl-6-(difluoromethoxy)-1H-indol-2-yl]-N-(1,3-difluoropropan-2-yl)pyridine-3-sulfonamide] | 175 to 178 °C | < 500 nM
9 | Cc1ccc2c(C#N)c(-c3ncc(S(=O)(=O)NC(C)C)cn3)n(C3CCCC3)c2c1 [compound 74, 2-(3-cyano-1-cyclopentyl-6-methyl-1H-indol-2-yl)-N-(propan-2-yl)pyrimidine-5-sulfonamide] | 213 to 214 °C | < 500 nM
10 | Cc1ccc2c(C#N)c(-c3ccc(NS(=O)(=O)C4CC4)cn3)n(C3CCC3)c2c1 [compound 297, N-[6-(3-cyano-1-cyclobutyl-6-methyl-1H-indol-2-yl)pyridin-3-yl]cyclopropanesulfonamide] | 200 to 205 °C | 500 to 2000 nM
11 | CCc1ccc2c(C#N)c(-c3ccc(S(=O)(=O)N[C@@H](C)C4CC4)cn3)n(C3CCCC3)c2c1 [compound 312, 6-(3-cyano-1-cyclopentyl-6-ethyl-1H-indol-2-yl)-N-[(1S)-1-cyclopropylethyl]pyridine-3-sulfonamide] | 147.5 to 148.5 °C | 500 to 2000 nM
12 | CC(C)NS(=O)(=O)c1cnc(-c2c(C#N)c3cc(F)ccc3n2CC2CC2)nc1 [compound 303, 2-[3-cyano-1-(cyclopropylmethyl)-5-fluoro-1H-indol-2-yl]-N-(propan-2-yl)pyrimidine-5-sulfonamide] | 215 to 220 °C | < 500 nM
13 | Cc1ccc2c(C#N)c(-c3ccc(S(=O)(=O)N[C@H](C)C(F)(F)F)cn3)n(C3CCCCC3)c2c1 [compound 213, 6-(3-cyano-1-cyclohexyl-6-methyl-1H-indol-2-yl)-N-[(2R)-1,1,1-trifluoropropan-2-yl]pyridine-3-sulfonamide] | 208 to 212 °C | < 500 nM
14 | Cc1cc2c(C#N)c(-c3ccc(S(=O)(=O)N[C@@H](C)C(F)(F)F)cn3)n(C3CCCC3)c2cc1F [compound 483, 6-(3-cyano-1-cyclopentyl-6-fluoro-5-methyl-1H-indol-2-yl)-N-[(2S)-1,1,1-trifluoropropan-2-yl]pyridine-3-sulfonamide] | 219 to 223 °C | < 500 nM
15 | Cc1cc2c(C#N)c(-c3ccc(S(=O)(=O)N[C@@H](C)C(F)(F)F)cn3)n(-c3ccccn3)c2cc1F [compound 917, 6-[3-cyano-6-fluoro-5-methyl-1-(pyridin-2-yl)-1H-indol-2-yl]-N-[(2S)-1,1,1-trifluoropropan-2-yl]pyridine-3-sulfonamide] | 175 to 180 °C | < 500 nM
16 | C[C@H](NS(=O)(=O)c1ccc(-c2c(C#N)c3ccc(C#N)cc3n2CC2CC2)nc1)C1CC1 [compound 350, N-[(1S)-1-cyclopropylethyl]-6-[3,6-dicyano-1-(cyclopropylmethyl)-1H-indol-2-yl]pyridine-3-sulfonamide] | 203 to 208 °C | 500 to 2000 nM
17 | COc1ccc2c(C#N)c(-c3ccc(S(=O)(=O)N[C@H](C)C(F)(F)F)cn3)n(C3CCCCC3)c2c1 [compound 518, 6-(3-cyano-1-cyclohexyl-6-methoxy-1H-indol-2-yl)-N-[(2R)-1,1,1-trifluoropropan-2-yl]-pyridine-3-sulfonamide] | 198 to 204 °C | < 500 nM
18 | CCc1ccc2c(C#N)c(-c3ccc(S(=O)(=O)N[C@H](C)C(F)(F)F)cn3)n(C3CCCC3)c2c1 [compound 311, 6-(3-cyano-1-cyclopentyl-6-ethyl-1H-indol-2-yl)-N-[(2R)-1,1,1-trifluoropropan-2-yl]pyridine-3-sulfonamide] | 185 to 186 °C | < 500 nM
19 | Cc1ccc2c(C#N)c(-c3ccc(S(=O)(=O)NC(C)(C)C(F)(F)F)cn3)n(-c3ncccn3)c2c1 [compound 689, 6-[3-cyano-6-methyl-1-(pyrimidin-2-yl)-1H-indol-2-yl]-N-(1,1,1-trifluoro-2-methylpropan-2-yl)pyridine-3-sulfonamide] | 202 to 205 °C | 500 to 2000 nM
20 | CC(C)NS(=O)(=O)c1cnc(-c2c(C#N)c3ccc(Cl)cc3n2C2CCC2)nc1 [compound 115, 2-(6-chloro-3-cyano-1-cyclobutyl-1H-indol-2-yl)-N-(propan-2-yl)pyrimidine-5-sulfonamide] | 228 to 229 °C | < 500 nM
21 | Cc1ccc2c(c1)c(C#N)c(-c1ccc(S(=O)(=O)N[C@@H](C)C(F)(F)F)cn1)n2C1CCCC1 [compound 345, 6-(3-cyano-1-cyclopentyl-5-methyl-1H-indol-2-yl)-N-[(2S)-1,1,1-trifluoropropan-2-yl]pyridine-3-sulfonamide] | 195 to 200 °C | < 500 nM
